How the values were obtained:
P. berghei = assay: 4-day Peters' test, P. berghei-infected mouse malaria model; assay type: in vivo; details: for Activity (%) / Survival / Parasite-free mice (n/total): once per day on 4 consecutive days
Protocol: Finally, we tested BH267.meta in vivo in a P. berghei-infected mouse malaria model. For comparison, we included the established antimalarials chloroquine, mefloquine, and artesunate in the assay. Efficacy was determined by a 4-day Peters’ test ([20], [21]) after oral administration of 30, 10, and 3 mg kg^−1 day^−1 for each antimalarial for four consecutive days. At 4 × 3 mg kg^−1 treatment with BH267.meta, parasitemia was at 0.2% after 4 days, while doses of 10 mg kg^−1 and higher decreased the parasitemia below the limit of quantitation (LOQ) of 0.1%. […] Artesunate yielded lower activity at 4 × 3 mg kg^−1. The average survival after BH267.meta treatment was similar to that after artesunate treatment and ranged from 8.0 d (3 mg kg^−1) to 13.0 d (30 mg kg^−1) due to recurring parasitemia (Table 1).
(§1) In vivo efficacy of BH267.meta against P. berghei was determined as previously described ([20], [21]). Mice were infected with a GFP-transfected P. berghei ANKA strain (donated by A. P. Waters and C. J. Janse, Leiden University, Leiden, The Netherlands), and parasitemia was determined using standard flow cytometry techniques. The detection limit was 0.1%, i.e., 1 parasite in 1,000 erythrocytes. Activity was calculated as the difference between the mean parasitemia for the control and treated groups (n = 3, each) expressed relative to the control group. BH267.meta was dissolved (3 mg kg ^−1 doses) or suspended (all higher doses) in 70/30 Tween 80/ethanol, diluted 10-fold with water, and administered orally as four consecutive daily doses (4, 24, 48, and 72 h after infection). […] different doses of BH267.meta were analyzed (30, 10, and 3 mg kg ^−1). In vivo efficacy against P. falciparum was conducted at The Art of Discovery, Derio, Spain according to the standard assay previously described ([22], [23]). Animal experiments against P. berghei were carried out at the Swiss Tropical and Public Health Institute and adhered to local and national regulations of laboratory animal welfare in Switzerland (awarded permission no. 1731). Protocols are regularly reviewed and revised following approval by the local authority (Veterinäramt Basel Stadt).

[1] = system: P. falciparum 3D7 blood stages; assay: Stage-specific action of BH267.meta on synchronized parasites; assay type: cell-based, Plasmodium falciparum; details: IC90 of BH267.meta added at ring, trophozoite or schizont stage
Protocol: Asynchronous cultures containing ~2% schizonts were purified using a 60% Percoll gradient and split into 4 tubes containing […] fresh blood and culture medium, shaken at 37°C for 30 min at 800 rpm to permit newly released merozoites to invade red blood cells, and then transferred into four 5-mL culture dishes. […] The cultures were maintained with daily medium changes and replenishment of IC90 BH267.meta when drug treatment had already commenced for a culture. Giemsa smear and flow cytometry were performed as described previously ([32]), and samples were taken at regular intervals (daily or every 12 h).

[2] = system: P. falciparum parasites with PfFNT G21E mutation; assay: EC50 determination by flow cytometry, drug-selected parasites with PfFNT G21E; assay type: cell-based, Plasmodium falciparum; details: parasites with G21E amino acid change vs 3D7 wild-type
Protocol: (§2) P. falciparum parasites, 3D7, were cultured in RPMI 1640 medium supplemented with 0.5% Albumax with 0+ erythrocytes (University Medical Center Hamburg-Eppendorf, Hamburg, Germany) at a 5% hematocrit at 37°C in an atmosphere containing 5% CO2, 1% O2, and 94% N2 under standard conditions ([31]). To obtain resistant parasites, 50 mL of parasite culture, starting with 5 × 10^8 to 6 × 10^8 parasites, were exposed to 3 × IC50 of either MMV007839 or BH267.meta until parasitemia was established again (around 2 weeks). For sequencing of the fnt gene, genomic DNA from the susceptible and resistant P. falciparum parasite lines was obtained from 5 mL of culture using the QIAamp DNA minikit (Qiagen, Hilden, Germany). The primer sequences used to sequence the entire fnt gene are available in Table S2. To determine the EC50, asynchronous parasites (0.5% to 1% starting parasitemia) were exposed to serial dilutions of the drug and grown for 2 days with one change of medium (including the appropriate concentration of drug), after which the parasitemia was determined using an LSR II FACS (BD Biosciences, Franklin Lakes, NJ) as previously described ([32]). The data were analyzed in GraphPad Prism to determine EC50 values.

[3] = system: P. falciparum parasite culture; set-up: method as in PMID 32816478; details: read-out: effectiveness in parasite culture; cited from earlier work
P. falciparum = P. falciparum SCID mouse model; assay type: in vivo; details: 50 mg kg−1 d−1 oral for four consecutive days, single animal; LOQ 0.01%
Protocol: In addition to the P. berghei efficacy assessment, we also evaluated BH267.meta in a P. falciparum severe combined immunodeficient (SCID) mouse model as previously described ([22], [23]). Efficacy was assessed following administration of 50 mg kg^−1 d^−1 for four consecutive days to a single animal (Fig. 7).
as §1, with “Animal experiments against P. berghei were carried out at the Swiss Tropical and Public Health Institute and adhered to local and national regulations of laboratory animal welfare in Switzerland (awarded permission no. 1731). Protocols are regularly reviewed and revised following approval by the local authority (Veterinäramt Basel Stadt).” left out

[4] = system: P. falciparum parasites with PfFNT V196L mutation; assay: EC50 determination by flow cytometry, drug-selected parasites with PfFNT V196L; assay type: cell-based, Plasmodium falciparum; details: V196L mutation vs 3D7 wild-type
Protocol: as §2

## C[C@H]1[C@H](OC(=O)CCC(=O)O)O[C@@H]2O[C@@]3(C)CC[C@H]4[C@H](C)CC[C@@H]1[C@@]24OO3 [Artesunate, artesunate]
P. berghei; 3 mg kg−1 day−1 oral
  Activity (%): 85.0%
  Survival: 8.8 days
P. berghei; 10 mg kg−1 day−1 oral
  Activity (%): 99.1%
  Survival: 8.1 days
P. berghei; 30 mg kg−1 day−1 oral
  Activity (%): 99.0%
  Survival: 9.2 days

## O=C(/C=C(\O)C(F)(F)C(F)(F)F)c1cccnc1 [BH267.meta]
[1]
  blood stage affected: specifically affects the trophozoite stage
[2]
  reduction in sensitivity compared to the 3D7 parasites: no alteration in the response
P. berghei; 3 mg kg−1 day−1 oral
  Activity (%): 99.7%
  Survival: 8.0 days
P. berghei; 10 mg kg−1 day−1 oral
  Activity (%): 99.9%
  Survival: 10.7 days
P. berghei; 30 mg kg−1 day−1 oral
  Activity (%): 99.8%
  Survival: 13.0 days
P. berghei; 4 × 3 mg kg−1 oral
  parasitemia after 4 days: 0.2%
P. berghei; all tested doses (30, 10, 3 mg kg−1 day−1, 4 days oral)
  efficacy: ≥ 99.7%
P. berghei; doses of 10 mg kg−1 and higher, 4 days oral, LOQ 0.1%
  parasitemia: < 0.1%
P. berghei; mice under treatment, 3-30 mg kg−1 day−1 oral for 4 days
  symptoms or side effects elicited by the compound: free of symptoms or side effects
P. berghei; mouse malaria models
  activity in mice: > 99%
[3]
  EC50: 240 nM
P. falciparum
  parasitemia: < 0.01%

## COc1ccc(C(=O)/C=C(\O)C(F)(F)C(F)(F)F)cc1 [BH296]
[4]
  fold increased IC50: 7.4 fold
[2]
  reduction in sensitivity compared to the 3D7 parasites: 3.0 fold

## CCN(CC)CCCC(C)Nc1ccnc2cc(Cl)ccc12 (centres unmarked) [Chloroquine, chloroquine]
P. berghei; 3 mg kg−1 day−1 oral
  Activity (%): 99.0%
  Survival: 11.0 days
P. berghei; 10 mg kg−1 day−1 oral
  Activity (%): 99.9%
  Survival: 15.5 days
P. berghei; 30 mg kg−1 day−1 oral
  Activity (%): 99.9%
  Survival: 21.2 days

## COc1ccc2c(c1)OC(O)(C(F)(F)C(F)(F)F)CC2=O (centres unmarked) [MMV007839]
[2]
  reduction in sensitivity compared to the 3D7 parasites: 8.4 fold

## OC(c1cc(C(F)(F)F)nc2c(C(F)(F)F)cccc12)C1CCCCN1 (centres unmarked) [Mefloquine, mefloquine]
P. berghei; 3 mg kg−1 day−1 oral
  Activity (%): 93.0%
  Survival: 13.0 days
P. berghei; 10 mg kg−1 day−1 oral
  Activity (%): 99.9%
  Parasite-free mice (n/total): 1/5
  Survival: 21.0 days
P. berghei; 30 mg kg−1 day−1 oral
  Activity (%): 99.9%
  Parasite-free mice (n/total): 4/5
  Survival: 29.1 days

From publication PMC10433847, “The Plasmodium Lactate/H^+ Transporter PfFNT Is Essential and Druggable In Vivo” (Antimicrobial Agents and Chemotherapy, 2023)
